The source made the active and inactive calls.
What was measured:
[1] = molecular target: T1, Oxysterols receptor LXR-beta (Homo sapiens, UniProt P55055); format: functional, cell-based;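 also: Cell-based luminescence dose-response assay of agonist activity at LXR, run as a confirmatory counterscreen to a daf-12 agonist screen; agonist potency from rising luciferase signal of a Gal4-LXR reporter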
T1 sequence (P55055 whole entry): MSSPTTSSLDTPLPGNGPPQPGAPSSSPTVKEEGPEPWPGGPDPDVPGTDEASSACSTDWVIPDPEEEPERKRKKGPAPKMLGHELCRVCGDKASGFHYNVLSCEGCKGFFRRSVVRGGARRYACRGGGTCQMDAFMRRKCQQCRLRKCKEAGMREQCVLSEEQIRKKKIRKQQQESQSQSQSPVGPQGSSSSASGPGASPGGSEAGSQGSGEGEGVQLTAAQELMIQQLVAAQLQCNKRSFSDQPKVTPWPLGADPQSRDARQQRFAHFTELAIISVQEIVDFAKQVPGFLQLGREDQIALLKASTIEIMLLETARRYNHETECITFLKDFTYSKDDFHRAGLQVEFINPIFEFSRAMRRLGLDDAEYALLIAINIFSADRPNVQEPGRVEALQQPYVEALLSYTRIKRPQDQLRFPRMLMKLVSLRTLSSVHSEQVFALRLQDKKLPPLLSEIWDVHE

[2] = molecular target: T1, Oxysterols receptor LXR-beta; assay: LXR agonists, Gal4 luciferase reporter, dose response, counter-screen for ssDAF-12 agonist project, cell-based, luminescence, HEK293, S. stercoralis campaign (AID 720737); format: functional; conditions: read-out: IC50 (the source's name)
[3] = Luminescence-based cell-based high throughput dose response assay to identify activators of the DAF-12 from the parasite S. stercoralis (ssDAF-12).; format: functional
[4] = cells
[5] = molecular target: Genome polyprotein (dengue virus type 2, UniProt P29990); assay: Dengue-2 NS5 methyltransferase inhibitors, primary screen, biochemical, confirmation dose response (AID 588689); format: functional
[6] = molecular target: Glucose-6-phosphate 1-dehydrogenase (Homo sapiens, UniProt P11413); assay: human G6PD enzyme inhibitors, dose response, selectivity assay for P. falciparum G6PD inhibitor project, biochemical, fluorescence (AID 504792); format: functional
[7] = THP-1 cell cytotoxicity, dose response, cytotoxicity control for Vif-APOBEC3G degradation inhibitor project, THP-1 cells (AID 1117359); format: functional; conditions: Human immunodeficiency virus 1, THP-1
[8] = molecular target: T2, Probable nicotinate-nucleotide adenylyltransferase (Staphylococcus aureus (strain N315), UniProt P65502); format: functional, Staphylococcus aureus subsp. aureus N315; conditions: read-out: IC50_Mean;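 as to IC50 Mean: confirmatory dose-response retesting of NadD inhibitor hits first found in an ultra-high-throughput screen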
[9] = molecular target: Protein Tat (Human immunodeficiency virus type 1 group M subtype B (isolate HXB2)(HIV-1), UniProt P04608); format: functional;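 also: tat binding to TAR RNA read out by fluorescence polarization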
[10] = molecular target: T2, Probable nicotinate-nucleotide adenylyltransferase; format: functional, Staphylococcus aureus subsp. aureus N315
[11] = system: Vero; assay: Vero cell cytotoxicity, cytotoxicity control for flavivirus capping enzyme inhibitors (AID 588742); format: functional; conditions: Chlorocebus sabaeus
[12] = cells; conditions: A549
[13] = molecular target: E3 ubiquitin-protein ligase UHRF1 (Homo sapiens, UniProt Q96T88); assay: Counterscreen for inhibitors of 5-meCpG-binding domain protein 2 (MBD2): TRFRET-based biochemical high throughput dose response assay to identify inhibitors of binding of ubiquitin-like with PHD and ring finger domains 1 (UHRF1) to methylated oligonucleotide.
[14] = system: HeLa; assay: HeLa cell cytotoxicity, dose response, cytotoxicity control for MITF activator project, CellTiter-Glo luminescence, cherry-pick samples (AID 540259); format: functional, cell-based; conditions: Homo sapiens
[15] = molecular target: T3, DNA repair and recombination protein RAD54-like (Homo sapiens, UniProt Q92698); assay: inhibitors of human RAD54 branch migration, confirmation, biochemical, fluorescence, cherry-picked samples, dose series (AID 651657); format: functional
T3 sequence (Q92698 whole entry): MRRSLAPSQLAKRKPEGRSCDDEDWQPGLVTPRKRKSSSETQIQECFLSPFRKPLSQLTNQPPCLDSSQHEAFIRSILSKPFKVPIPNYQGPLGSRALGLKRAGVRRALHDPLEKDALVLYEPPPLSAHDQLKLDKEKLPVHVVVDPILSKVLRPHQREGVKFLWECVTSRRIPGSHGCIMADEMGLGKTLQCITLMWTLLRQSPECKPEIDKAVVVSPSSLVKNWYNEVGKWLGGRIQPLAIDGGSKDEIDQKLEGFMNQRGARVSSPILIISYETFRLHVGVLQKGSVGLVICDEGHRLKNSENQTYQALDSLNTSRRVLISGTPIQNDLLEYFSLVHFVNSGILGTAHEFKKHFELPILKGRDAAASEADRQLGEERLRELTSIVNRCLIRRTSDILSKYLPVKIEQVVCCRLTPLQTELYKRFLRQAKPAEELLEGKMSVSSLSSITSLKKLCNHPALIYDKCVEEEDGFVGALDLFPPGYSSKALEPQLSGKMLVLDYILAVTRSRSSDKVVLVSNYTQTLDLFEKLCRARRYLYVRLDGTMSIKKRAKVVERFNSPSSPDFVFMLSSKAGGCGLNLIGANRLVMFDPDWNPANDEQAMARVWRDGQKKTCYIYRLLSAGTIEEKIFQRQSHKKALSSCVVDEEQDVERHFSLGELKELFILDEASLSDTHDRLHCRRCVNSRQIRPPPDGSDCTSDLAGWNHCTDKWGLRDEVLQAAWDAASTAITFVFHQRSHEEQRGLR

[16] = HepG2 cell cytotoxicity, dose response, cytotoxicity control, ATP luminescence, cherry-pick, set 6 (AID 1053125); format: functional, cell-based
[17] = cells; conditions: HEK293
[18] = molecular target: RNA-editing ligase 1, mitochondrial (Trypanosoma brucei brucei, UniProt P86926); assay: TbREL1 ligase inhibitors, dose response, biochemical, fluorescence, Trypanosoma brucei (AID 1117295); format: functional
[19] = A549 cell cytotoxicity, dose response, cytotoxicity control, 24 h, CellTiter-Glo luminescence, cherry-picks (AID 1053115); format: functional, cell-based; conditions: A549, 24 h
[20] = A549 cell cytotoxicity, dose response, CellTiter-Glo luminescence, dry powder, set 17 (AID 1117284); format: functional, cell-based
[21] = Orthopox viral replication plaque formation Measured in Cell-Based and Microorganism Combination System Using Imaging - 2142-05_Inhibitor_Dose_DryPowder_Activity.; format: functional
[22] = Dose-response inhibition of insulin secretion in a rat insulinoma line at 5 mM glucose (AID 1117331); format: functional, cell-based; conditions: INS-1E
[23] = Mtb BioA inhibitors by displacement, dose response, biochemical, coupled fluorescence displacement, 20-point, dry powder (AID 743357); format: functional
[24] = molecular target: G-protein coupled receptor 183 (Homo sapiens, UniProt P32249); assay: SAR confirmation of small molecule antagonists of the EBI2 receptor via a luminescent beta-arrestin assa.; format: functional
[25] = HeLa 2N DNA content increase, dose response, cell-based, IC50 (AID 1117349); format: functional
[26] = CellTiter-Glo luminescent dose response of DLD-1 viability loss (AID 1117352); format: functional
[27] = HCT116 cell viability decrease, GSK3B pretreatment – CellTiter-Glo, IC50, dose response (AID 1117339); format: functional; conditions: HCT-116
[28] = cytotoxicity toward Colo320 cells – cell-based, CellTiter-Glo luminescence, IC50, dose response (AID 1117334); format: functional; conditions: COLO 320
[29] = system: BJ; assay: cells; format: functional, cell-based; conditions: Homo sapiens
[30] = system: P388; assay: cells; format: functional; conditions: Mus musculus
[31] = microbe, parasite or virus in culture; format: functional; conditions: Mycobacterium tuberculosis
[32] = cytotoxicity toward HT-29 cells – cell-based, CellTiter-Glo luminescence, IC50, dose response (AID 1117330); format: functional
[33] = system: SN12K1; assay: cells; format: functional; conditions: Homo sapiens
[34] = Concentration-dependent survival of SW480 colon cancer line, luminescence detection with CellTiter-Glo, half-maximal inhibitory concentration (AID 1117338); format: functional
[35] = HeLa 4N DNA content increase, dose response, cell-based, IC50 (AID 1117351); format: functional
[36] = system: BJ; assay: cytotoxicity toward BJ-TERT-LT-ST fibroblasts, dose response, cell-based, RAS-independent, luminescence (AID 1935); format: functional; conditions: Homo sapiens;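 also: BJ fibroblasts immortalized with TERT plus LT and ST oncogenes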
[37] = system: BJ; assay: cytotoxicity toward Ras-transformed BJeLR fibroblasts, dose response, cell-based, alamar blue fluorescence, cherrypicked samples (AID 2631); format: functional; conditions: Homo sapiens;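 also: confirmatory dose-response assay in RAS-dependent BJ fibroblasts engineered with TERT, LT and ST, with cytotoxicity read by fluorescence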
[38] = system: BJ; assay: cytotoxicity toward BJ-TERT fibroblasts, dose response, cell-based, RAS-independent, luminescence (AID 1933); format: functional; conditions: Homo sapiens
[39] = cytotoxicity toward DRD oncogenic fibroblasts, dose response, cell-based, non-viral oncogenic, luminescence (AID 1934); format: functional; conditions: Homo sapiens
[40] = system: P388/ADR; assay: cells; format: functional; conditions: Mus musculus
[41] = inhibitors of firefly luciferase expression or activity, dose response, H4 neuroglioma cells, luminescence (AID 1990); format: functional, cell-based
[42] = RKO cell viability reduction, dose response, CellTiter-Glo luminescence (AID 1117322); format: functional
[43] = cytotoxicity toward HCT116 cells – cell-based, CellTiter-Glo luminescence, IC50, dose response (AID 1117332); format: functional; conditions: HCT-116
[44] = inhibitors of SNCA 5'UTR-driven reporter translation, confirmation, H4 neuroglioma cells, luminescence (AID 1988); format: functional, cell-based
[45] = SNU-C1 cell viability reduction, dose response, CellTiter-Glo luminescence (AID 1117323); format: functional, cell-based

T2 sequence (P65502 whole entry): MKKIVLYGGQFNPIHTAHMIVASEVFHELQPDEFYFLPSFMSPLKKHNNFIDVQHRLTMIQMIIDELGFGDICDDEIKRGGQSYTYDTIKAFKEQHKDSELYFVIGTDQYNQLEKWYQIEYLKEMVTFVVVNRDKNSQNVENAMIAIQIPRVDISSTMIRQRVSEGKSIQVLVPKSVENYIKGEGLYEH
Chain of Protein Tat (P04608 whole entry): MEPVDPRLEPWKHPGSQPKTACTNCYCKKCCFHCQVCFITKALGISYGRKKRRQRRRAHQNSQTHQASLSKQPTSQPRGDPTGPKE
Chain of RNA-editing ligase 1, mitochondrial (P86926 whole entry): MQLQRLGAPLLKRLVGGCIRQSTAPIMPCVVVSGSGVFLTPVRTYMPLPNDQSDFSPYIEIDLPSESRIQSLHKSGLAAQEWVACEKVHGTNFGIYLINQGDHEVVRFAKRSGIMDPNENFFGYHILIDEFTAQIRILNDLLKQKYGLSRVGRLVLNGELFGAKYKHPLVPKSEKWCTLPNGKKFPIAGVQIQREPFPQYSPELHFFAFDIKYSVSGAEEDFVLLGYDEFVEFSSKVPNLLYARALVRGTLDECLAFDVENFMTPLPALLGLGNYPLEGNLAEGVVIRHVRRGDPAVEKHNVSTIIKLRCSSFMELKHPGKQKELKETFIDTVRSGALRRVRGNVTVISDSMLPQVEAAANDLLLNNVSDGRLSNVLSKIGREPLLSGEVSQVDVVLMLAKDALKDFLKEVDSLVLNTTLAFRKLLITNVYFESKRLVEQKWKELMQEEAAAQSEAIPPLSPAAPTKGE
Chain of G-protein coupled receptor 183 (P32249 whole entry): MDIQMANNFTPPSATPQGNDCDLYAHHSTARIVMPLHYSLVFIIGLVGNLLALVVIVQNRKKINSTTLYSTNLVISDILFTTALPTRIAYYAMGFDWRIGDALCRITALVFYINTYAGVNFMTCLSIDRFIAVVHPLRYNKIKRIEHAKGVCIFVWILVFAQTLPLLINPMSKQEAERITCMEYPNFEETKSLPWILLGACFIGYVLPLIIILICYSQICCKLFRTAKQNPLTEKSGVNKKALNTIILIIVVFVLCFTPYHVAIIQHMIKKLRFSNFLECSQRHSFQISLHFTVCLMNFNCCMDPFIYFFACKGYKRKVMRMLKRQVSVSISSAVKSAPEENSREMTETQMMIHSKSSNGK
Chain of Glucose-6-phosphate 1-dehydrogenase (P11413 whole entry): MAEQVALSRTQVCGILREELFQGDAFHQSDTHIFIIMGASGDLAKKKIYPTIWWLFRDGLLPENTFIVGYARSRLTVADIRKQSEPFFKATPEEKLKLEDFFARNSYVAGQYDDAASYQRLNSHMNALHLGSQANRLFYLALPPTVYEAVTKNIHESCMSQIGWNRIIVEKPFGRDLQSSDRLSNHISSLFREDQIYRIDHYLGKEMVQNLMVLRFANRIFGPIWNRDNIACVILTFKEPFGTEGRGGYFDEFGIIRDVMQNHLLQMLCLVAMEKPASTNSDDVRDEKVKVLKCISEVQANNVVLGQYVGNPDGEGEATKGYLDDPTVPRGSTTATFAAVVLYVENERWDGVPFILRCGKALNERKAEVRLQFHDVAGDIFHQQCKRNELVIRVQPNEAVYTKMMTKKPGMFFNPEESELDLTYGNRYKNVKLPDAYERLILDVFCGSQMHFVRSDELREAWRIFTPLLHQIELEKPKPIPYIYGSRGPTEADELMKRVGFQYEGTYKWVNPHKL
Chain of Genome polyprotein (P29990 2492-3391 limits assumed): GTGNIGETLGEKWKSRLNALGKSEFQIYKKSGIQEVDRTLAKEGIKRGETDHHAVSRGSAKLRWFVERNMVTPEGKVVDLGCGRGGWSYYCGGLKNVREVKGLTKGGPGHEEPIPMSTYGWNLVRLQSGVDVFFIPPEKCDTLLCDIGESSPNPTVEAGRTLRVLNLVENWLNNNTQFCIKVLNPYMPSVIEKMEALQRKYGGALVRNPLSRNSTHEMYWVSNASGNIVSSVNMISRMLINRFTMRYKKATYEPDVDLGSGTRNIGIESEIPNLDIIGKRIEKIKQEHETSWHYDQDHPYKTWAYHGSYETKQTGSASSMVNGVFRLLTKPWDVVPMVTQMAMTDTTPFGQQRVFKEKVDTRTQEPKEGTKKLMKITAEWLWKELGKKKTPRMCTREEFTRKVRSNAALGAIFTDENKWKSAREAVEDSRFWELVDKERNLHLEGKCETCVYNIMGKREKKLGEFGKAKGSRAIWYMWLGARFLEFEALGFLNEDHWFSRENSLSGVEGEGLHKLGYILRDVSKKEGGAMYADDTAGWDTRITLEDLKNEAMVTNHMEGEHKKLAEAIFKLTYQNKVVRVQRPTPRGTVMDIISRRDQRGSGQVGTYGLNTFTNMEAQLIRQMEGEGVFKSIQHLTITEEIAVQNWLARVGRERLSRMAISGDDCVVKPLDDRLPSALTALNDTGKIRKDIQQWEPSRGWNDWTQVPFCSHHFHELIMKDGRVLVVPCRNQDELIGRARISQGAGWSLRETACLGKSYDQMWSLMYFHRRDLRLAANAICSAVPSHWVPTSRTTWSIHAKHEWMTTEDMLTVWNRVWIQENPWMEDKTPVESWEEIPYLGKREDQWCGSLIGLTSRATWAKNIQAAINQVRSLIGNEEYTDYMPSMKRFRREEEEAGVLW
Chain of E3 ubiquitin-protein ligase UHRF1 (Q96T88 whole entry, the tested form may be a part): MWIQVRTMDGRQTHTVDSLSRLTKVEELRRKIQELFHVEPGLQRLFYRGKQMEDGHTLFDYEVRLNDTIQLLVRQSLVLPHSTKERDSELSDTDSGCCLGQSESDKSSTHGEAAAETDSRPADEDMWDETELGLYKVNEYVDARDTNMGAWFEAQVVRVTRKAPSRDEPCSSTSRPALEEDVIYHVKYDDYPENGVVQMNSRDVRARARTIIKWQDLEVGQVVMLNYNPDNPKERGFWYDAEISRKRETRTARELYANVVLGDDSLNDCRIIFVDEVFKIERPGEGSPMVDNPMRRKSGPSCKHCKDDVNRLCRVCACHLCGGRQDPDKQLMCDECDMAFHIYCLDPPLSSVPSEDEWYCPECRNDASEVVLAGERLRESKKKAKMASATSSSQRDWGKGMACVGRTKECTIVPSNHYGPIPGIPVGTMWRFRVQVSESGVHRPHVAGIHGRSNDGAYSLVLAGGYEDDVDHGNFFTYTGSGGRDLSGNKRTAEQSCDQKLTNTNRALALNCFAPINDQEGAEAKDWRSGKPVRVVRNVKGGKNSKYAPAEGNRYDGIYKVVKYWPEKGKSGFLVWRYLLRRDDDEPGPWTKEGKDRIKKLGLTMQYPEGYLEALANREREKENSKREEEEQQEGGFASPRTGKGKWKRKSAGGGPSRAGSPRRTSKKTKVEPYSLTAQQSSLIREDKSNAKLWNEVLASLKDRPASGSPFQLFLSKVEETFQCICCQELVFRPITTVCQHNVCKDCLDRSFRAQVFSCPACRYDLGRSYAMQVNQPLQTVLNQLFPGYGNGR

## Cc1ccc(-c2cc3nc(C)cc(C)n3n2)cc1
[1]
  EC50: > 67.5 µM (inactive)
[2]
  EC50: > 67.5 µM (inactive)
[3]
  IC50: > 67.5 µM (inactive)
[4]
  EC50: > 67.5 µM (inactive)

## O=C1OC(c2ccc3ccccc3c2O)(c2ccc3ccccc3c2O)c2ccccc21
[5]
  IC50: 19 µM (active)
[6]
  IC50: > 80 µM (inactive)
[7]
  CC50: > 40 µM (active)
[8]
  IC50: 20.9 µM (active)
[9]
  IC50: > 100 µM (active)
[10]
  IC50: 7.05 µM (active)
[11]
  CC50: > 40 µM (active)

## COc1cc2sc3cc(NCC[C@@H]4CCCN4C)ccc3c(=O)c2cc1OC
[12]
  AC50: 35.5 µM (active)
[13]
  IC50: 26.2 µM (inactive)
[14]
  AC50: 191 µM (active)
[15]
  AC50: 6.9 µM (active)
[16]
  AC50: 17.6 µM (active)
[17]
  AC50: 38 µM (active)

## CCCCN(C)C(=O)c1ccc(Nc2nc(C(N)Cc3ccc(C(F)(F)F)cc3)cs2)nc1 (stereo unspecified)
[18]
  IC50: > 96.6 µM (inactive)

## C[C@@H](O)C#Cc1ccc2c(c1)O[C@@H](CN(C)Cc1ccc(-c3ccccc3)cc1)[C@@H](C)CN([C@@H](C)CO)S2(=O)=O
[19]
  AC50: > 60 µM (inactive)
[20]; A549
  AC50: > 52 µM (inactive)
[20]; a549
  AC50: 49.4 µM (active)
[21]
  AC50: 8.84 µM (active)

## CN(C)CC[C@@H](c1ccc(Cl)cc1)c1ccccn1
[22]
  IC50: 17.7 µM (inactive)

## CS(=O)(=O)c1ccc(N2CCN(C(=O)c3ccc4c(c3)OCO4)CC2)cc1
[23]
  AC50: 15.1 µM (active)

## CCCc1ccc(S(=O)(=O)N2CCN(C(=O)/C=C/c3ccc(F)cc3)CC2)cc1
[24]
  IC50: 24.1 nM (active)

## Sc1ncnc2nc[nH]c12 [MERCAPTOPURINE ANHYDROUS]
[25]
  IC50: > 10 µM (inactive)
[26]
  IC50: 260 nM (active)
[27]
  IC50: 1.42 µM (active)
[28]
  IC50: 1.3 µM (active)
[29]
  EC50: 4.33 µM (inconclusive)
[30]
  GI50: 8.89 µM (inactive)
[31]
  CC50: > 40 µM (active)
[32]
  IC50: 635 nM (active)
[33]
  GI50: 1.29 µM (inactive)
[34]
  IC50: 1.04 µM (active)
[35]
  IC50: > 10 µM (inactive)
[36]
  EC50: > 150 µM (not active)
[37]
  EC50: > 133 µM (inactive)
[38]
  EC50: > 150 µM (not active)
[39]
  EC50: 5.35 µM (active)
[40]
  GI50: 19.5 µM (inactive)
[41]
  EC50: 13 µM (active)
[42]
  IC50: 659 nM (active)
[43]
  IC50: 259 nM (active)
[44]
  EC50: 11.6 µM (active)
[45]
  IC50: > 20 µM (inactive)

Source: ChEMBL document CHEMBL1201862, “PubChem BioAssay data set” (2004)
